Results published in ChEMBL document CHEMBL3045059, “Efficacy of ketoenols on insecticide resistant field populations of two-spotted spider mite Tetranychus urticae and sweet potato whitefly Bemisia tabaci from Greece” (2012).
Values after ≈ are worked out from the molar mass of the structure shown.

Key:
Type in all cases: functional
Tetranychus urticae [1] = assay: Resistance ratio, ratio of LC50 for adult Tetranychus urticae (two-spotted spider mite) greenhouse population TU9 to LC50 for adult Tetranychus urticae laboratory strain SAMB measured after 48 hr
Tetranychus urticae [2] = assay: Acaricidal activity against adult Tetranychus urticae (two-spotted spider mite) laboratory strain SAMB in bean leaves assessed as mortality applied at 1 bar pressure measured after 48 hr
Tetranychus urticae [3] = assay: Resistance ratio, ratio of LC50 for adult Tetranychus urticae (two-spotted spider mite) field population TU12 to LC50 for adult Tetranychus urticae laboratory strain SAMB measured after 48 hr
Tetranychus urticae [4] = assay: Resistance ratio, ratio of LC50 for adult Tetranychus urticae (two-spotted spider mite) greenhouse population TU11 to LC50 for adult Tetranychus urticae laboratory strain SAMB measured after 48 hr
Tetranychus urticae [5] = assay: Acaricidal activity against adult Tetranychus urticae (two-spotted spider mite) greenhouse population TU7 in bean leaves assessed as mortality applied at 1 bar pressure measured after 48 hr; conditions: TU7, 48 h
Tetranychus urticae [6] = assay: Acaricidal activity against adult Tetranychus urticae (two-spotted spider mite) laboratory strain GSS in bean leaves assessed as mortality applied at 1 bar pressure measured after 48 hr
Tetranychus urticae [7] = assay: Acaricidal activity against adult Tetranychus urticae (two-spotted spider mite) field population TU2 in bean leaves assessed as mortality applied at 1 bar pressure measured after 48 hr; conditions: TU2, 48 h
Tetranychus urticae [8] = assay: Acaricidal activity against adult Tetranychus urticae (two-spotted spider mite) greenhouse population TU5 in bean leaves assessed as mortality applied at 1 bar pressure measured after 48 hr; conditions: TU5, 48 h
Tetranychus urticae [9] = assay: Resistance ratio, ratio of LC50 for adult Tetranychus urticae (two-spotted spider mite) greenhouse population TU5 to LC50 for adult Tetranychus urticae laboratory strain SAMB measured after 48 hr
Tetranychus urticae [10] = assay: Acaricidal activity against adult Tetranychus urticae (two-spotted spider mite) greenhouse population TU11 in bean leaves assessed as mortality applied at 1 bar pressure measured after 48 hr; conditions: TU11, 48 h
Tetranychus urticae [11] = assay: Resistance ratio, ratio of LC50 for adult Tetranychus urticae (two-spotted spider mite) field population TU2 to LC50 for adult Tetranychus urticae laboratory strain SAMB measured after 48 hr
Tetranychus urticae [12] = assay: Acaricidal activity against adult Tetranychus urticae (two-spotted spider mite) greenhouse population TU1 in bean leaves assessed as mortality applied at 1 bar pressure measured after 48 hr; conditions: TU1, 48 h
Tetranychus urticae [13] = assay: Acaricidal activity against adult Tetranychus urticae (two-spotted spider mite) field population TU12 in bean leaves assessed as mortality applied at 1 bar pressure measured after 48 hr; conditions: TU12, 48 h
Tetranychus urticae [14] = assay: Resistance ratio, ratio of LC50 for adult Tetranychus urticae (two-spotted spider mite) greenhouse population TU1 to LC50 for adult Tetranychus urticae laboratory strain SAMB measured after 48 hr
Tetranychus urticae [15] = assay: Acaricidal activity against adult Tetranychus urticae (two-spotted spider mite) field population TU4 in bean leaves assessed as mortality applied at 1 bar pressure measured after 48 hr; conditions: TU4, 48 h
Tetranychus urticae [16] = assay: Resistance ratio, ratio of LC50 for adult Tetranychus urticae (two-spotted spider mite) field population TU4 to LC50 for adult Tetranychus urticae laboratory strain SAMB measured after 48 hr
Tetranychus urticae [17] = assay: Acaricidal activity against adult Tetranychus urticae (two-spotted spider mite) greenhouse population TU3 in bean leaves assessed as mortality applied at 1 bar pressure measured after 48 hr; conditions: TU3, 48 h
Tetranychus urticae [18] = assay: Acaricidal activity against adult Tetranychus urticae (two-spotted spider mite) field population TU6 in bean leaves assessed as mortality applied at 1 bar pressure measured after 48 hr; conditions: TU6, 48 h
Tetranychus urticae [19] = assay: Resistance ratio, ratio of LC50 for adult Tetranychus urticae (two-spotted spider mite) greenhouse population TU7 to LC50 for adult Tetranychus urticae laboratory strain SAMB measured after 48 hr
Tetranychus urticae [20] = assay: Resistance ratio, ratio of LC50 for adult Tetranychus urticae (two-spotted spider mite) greenhouse population TU3 to LC50 for adult Tetranychus urticae laboratory strain SAMB measured after 48 hr
Tetranychus urticae [21] = assay: Acaricidal activity against adult Tetranychus urticae (two-spotted spider mite) greenhouse population TU9 in bean leaves assessed as mortality applied at 1 bar pressure measured after 48 hr; conditions: TU9, 48 h
Tetranychus urticae [22] = assay: Resistance ratio, ratio of LC50 for adult Tetranychus urticae (two-spotted spider mite) laboratory strain GSS to LC50 for adult Tetranychus urticae laboratory strain SAMB measured after 48 hr
Tetranychus urticae [23] = assay: Resistance ratio, ratio of LC50 for adult Tetranychus urticae (two-spotted spider mite) field population TU6 to LC50 for adult Tetranychus urticae laboratory strain SAMB measured after 48 hr
Tetranychus urticae [24] = assay: Resistance ratio, ratio of LC50 for adult Tetranychus urticae (two-spotted spider mite) greenhouse population TU11 to LC50 for adult Tetranychus urticae laboratory strain SAMB measured after 24 hr
Tetranychus urticae [25] = assay: Acaricidal activity against adult Tetranychus urticae (two-spotted spider mite) field population TU6 in bean leaves assessed as mortality applied at 1 bar pressure measured after 24 hr; conditions: TU6, 24 h
Tetranychus urticae [26] = assay: Resistance ratio, ratio of LC50 for adult Tetranychus urticae (two-spotted spider mite) field population TU6 to LC50 for adult Tetranychus urticae laboratory strain SAMB measured after 24 hr
Tetranychus urticae [27] = assay: Acaricidal activity against adult Tetranychus urticae (two-spotted spider mite) greenhouse population TU1 in bean leaves assessed as mortality applied at 1 bar pressure measured after 24 hr; conditions: TU1, 24 h
Tetranychus urticae [28] = assay: Resistance ratio, ratio of LC50 for adult Tetranychus urticae (two-spotted spider mite) greenhouse population TU3 to LC50 for adult Tetranychus urticae laboratory strain SAMB measured after 24 hr
Tetranychus urticae [29] = assay: Resistance ratio, ratio of LC50 for adult Tetranychus urticae (two-spotted spider mite) field population TU4 to LC50 for adult Tetranychus urticae laboratory strain SAMB measured after 24 hr
Tetranychus urticae [30] = assay: Acaricidal activity against adult Tetranychus urticae (two-spotted spider mite) greenhouse population TU5 in bean leaves assessed as mortality applied at 1 bar pressure measured after 24 hr; conditions: TU5, 24 h
Tetranychus urticae [31] = assay: Acaricidal activity against adult Tetranychus urticae (two-spotted spider mite) laboratory strain GSS in bean leaves assessed as mortality applied at 1 bar pressure measured after 24 hr
Tetranychus urticae [32] = assay: Resistance ratio, ratio of LC50 for adult Tetranychus urticae (two-spotted spider mite) greenhouse population TU7 to LC50 for adult Tetranychus urticae laboratory strain SAMB measured after 24 hr
Tetranychus urticae [33] = assay: Resistance ratio, ratio of LC50 for adult Tetranychus urticae (two-spotted spider mite) greenhouse population TU5 to LC50 for adult Tetranychus urticae laboratory strain SAMB measured after 24 hr
Tetranychus urticae [34] = assay: Resistance ratio, ratio of LC50 for adult Tetranychus urticae (two-spotted spider mite) greenhouse population TU9 to LC50 for adult Tetranychus urticae laboratory strain SAMB measured after 24 hr
Tetranychus urticae [35] = assay: Acaricidal activity against adult Tetranychus urticae (two-spotted spider mite) greenhouse population TU7 in bean leaves assessed as mortality applied at 1 bar pressure measured after 24 hr; conditions: TU7, 24 h
Tetranychus urticae [36] = assay: Resistance ratio, ratio of LC50 for adult Tetranychus urticae (two-spotted spider mite) greenhouse population TU1 to LC50 for adult Tetranychus urticae laboratory strain SAMB measured after 24 hr
Tetranychus urticae [37] = assay: Acaricidal activity against adult Tetranychus urticae (two-spotted spider mite) greenhouse population TU3 in bean leaves assessed as mortality applied at 1 bar pressure measured after 24 hr; conditions: TU3, 24 h
Tetranychus urticae [38] = assay: Acaricidal activity against adult Tetranychus urticae (two-spotted spider mite) greenhouse population TU9 in bean leaves assessed as mortality applied at 1 bar pressure measured after 24 hr; conditions: TU9, 24 h
Tetranychus urticae [39] = assay: Resistance ratio, ratio of LC50 for adult Tetranychus urticae (two-spotted spider mite) field population TU12 to LC50 for adult Tetranychus urticae laboratory strain SAMB measured after 24 hr
Tetranychus urticae [40] = assay: Resistance ratio, ratio of LC50 for adult Tetranychus urticae (two-spotted spider mite) field population TU2 to LC50 for adult Tetranychus urticae laboratory strain SAMB measured after 24 hr
Tetranychus urticae [41] = assay: Acaricidal activity against adult Tetranychus urticae (two-spotted spider mite) greenhouse population TU11 in bean leaves assessed as mortality applied at 1 bar pressure measured after 24 hr; conditions: TU11, 24 h
Tetranychus urticae [42] = assay: Acaricidal activity against adult Tetranychus urticae (two-spotted spider mite) laboratory strain SAMB in bean leaves assessed as mortality applied at 1 bar pressure measured after 24 hr
Tetranychus urticae [43] = assay: Acaricidal activity against adult Tetranychus urticae (two-spotted spider mite) field population TU4 in bean leaves assessed as mortality applied at 1 bar pressure measured after 24 hr; conditions: TU4, 24 h
Tetranychus urticae [44] = assay: Acaricidal activity against adult Tetranychus urticae (two-spotted spider mite) field population TU2 in bean leaves assessed as mortality applied at 1 bar pressure measured after 24 hr; conditions: TU2, 24 h
Tetranychus urticae [45] = assay: Acaricidal activity against adult Tetranychus urticae (two-spotted spider mite) field population TU12 in bean leaves assessed as mortality applied at 1 bar pressure measured after 24 hr; conditions: TU12, 24 h
Tetranychus urticae [46] = assay: Resistance ratio, ratio of LC50 for adult Tetranychus urticae (two-spotted spider mite) laboratory strain GSS to LC50 for adult Tetranychus urticae laboratory strain SAMB measured after 24 hr

Molecule `Cc1c(COC(=O)[C@@H]2[C@H](/C=C(\Cl)C(F)(F)F)C2(C)C)cccc1-c1ccccc1` (relative stereo) [BIFENTHRIN] has a RatioLC50 (Tetranychus urticae [1]) of 12, an LC50 (Tetranychus urticae [2]) of 8.9 µg/mL (≈ 21 µM) and a RatioLC50 (Tetranychus urticae [3]) of 9.5. It also gave a RatioLC50 (Tetranychus urticae [4]) of 19, an LC50 (Tetranychus urticae [5]) of 75100 µg/mL (≈ 178000 µM) and an LC50 (Tetranychus urticae [6]) of 13 µg/mL (≈ 30.7 µM). For the same molecule, the LC50 (Tetranychus urticae [7]) was 42 µg/mL (≈ 99.3 µM), the LC50 (Tetranychus urticae [8]) was 45 µg/mL (≈ 106 µM) and the RatioLC50 (Tetranychus urticae [9]) was 5. For the same molecule, the LC50 (Tetranychus urticae [10]) was 168 µg/mL (≈ 397 µM), the RatioLC50 (Tetranychus urticae [11]) was 4.7 and the LC50 (Tetranychus urticae [12]) was 115 µg/mL (≈ 272 µM). The LC50 (Tetranychus urticae [13]) was 85 µg/mL (≈ 201 µM), the RatioLC50 (Tetranychus urticae [14]) was 13 and the LC50 (Tetranychus urticae [15]) was 3140 µg/mL (≈ 7420 µM). For the same molecule, the RatioLC50 (Tetranychus urticae [16]) was 351, the LC50 (Tetranychus urticae [17]) was 741 µg/mL (≈ 1750 µM) and the LC50 (Tetranychus urticae [18]) was 8.5 µg/mL (≈ 20.1 µM). The RatioLC50 (Tetranychus urticae [19]) was 8413, the RatioLC50 (Tetranychus urticae [20]) was 83 and the LC50 (Tetranychus urticae [21]) was 112 µg/mL (≈ 265 µM). The RatioLC50 (Tetranychus urticae [22]) was 1.5 and the RatioLC50 (Tetranychus urticae [23]) was 0.9.
Molecule `CC(C)(C)c1ccc(CCOc2ncnc3ccccc23)cc1` [FENAZAQUIN] has a RatioLC50 (Tetranychus urticae [24]) of 42, an LC50 (Tetranychus urticae [25]) of 29 µg/mL (≈ 94.6 µM) and a RatioLC50 (Tetranychus urticae [26]) of 2.2. The LC50 (Tetranychus urticae [27]) was 179 µg/mL (≈ 584 µM), the RatioLC50 (Tetranychus urticae [28]) was 5.7 and the RatioLC50 (Tetranychus urticae [29]) was 4.1. For the same molecule, the LC50 (Tetranychus urticae [30]) was 49 µg/mL (≈ 160 µM), the LC50 (Tetranychus urticae [31]) was 17 µg/mL (≈ 55.5 µM) and the RatioLC50 (Tetranychus urticae [32]) was 33. It also gave a RatioLC50 (Tetranychus urticae [33]) of 3.7, a RatioLC50 (Tetranychus urticae [34]) of 23 and an LC50 (Tetranychus urticae [35]) of 447 µg/mL (≈ 1460 µM). The RatioLC50 (Tetranychus urticae [36]) was 13, the LC50 (Tetranychus urticae [37]) was 77 µg/mL (≈ 251 µM) and the LC50 (Tetranychus urticae [38]) was 316 µg/mL (≈ 1030 µM). For the same molecule, the RatioLC50 (Tetranychus urticae [39]) was 15, the RatioLC50 (Tetranychus urticae [40]) was 7.3 and the LC50 (Tetranychus urticae [41]) was 562 µg/mL (≈ 1830 µM). It also gave an LC50 (Tetranychus urticae [42]) of 13 µg/mL (≈ 42.4 µM), an LC50 (Tetranychus urticae [43]) of 55 µg/mL (≈ 179 µM) and an LC50 (Tetranychus urticae [44]) of 97 µg/mL (≈ 317 µM). For the same molecule, the LC50 (Tetranychus urticae [45]) was 215 µg/mL (≈ 702 µM) and the RatioLC50 (Tetranychus urticae [46]) was 1.3.
